Assay results as given in patent publication US7888390B2, “Preparation of platinum(II) complexes” (Platco Technologies (Proprietary) Limited, priority 2003, dated 2011).

How the values were obtained:
Assay type in all cases: cell-based
cervical cancer cells = assay: Anticancer testing, inhibition of cervical cancer cells, 5% foetal calf serum medium; conditions: 5% foetal calf serum as medium
colon cancer cells = assay: Anticancer testing, inhibition of colon cancer cells, medium containing 10 mM glutathione; conditions: 100 μM
breast cancer = assay: Anticancer testing, inhibition on breast cancer, medium containing 10 mM glutathione; conditions: 100 μM solution

## N.N.[Cl][Pt][Cl] [cisplatin]
Cervical cancer cells; 10 μM solution
  percentage inhibition on cervical cancer cells: 85.4%
Cervical cancer cells; 100 μM solution
  percentage inhibition on cervical cancer cells: 95.3%
Colon cancer cells
  inhibition of colon cancer cells: 48%
Breast cancer
  inhibition on breast cancer: 10%

## CSCCCc1nccn1C.O=C([O-])C(=O)[O-].[Pt+2] [Example 6, oxalato(1-methyl-2-methylthiopropylimidazole)platinum(II)]
Cervical cancer cells; 10 μM solution
  percentage inhibition on cervical cancer cells: 88.6%
Cervical cancer cells; 100 μM solution
  percentage inhibition on cervical cancer cells: 97.7%
Colon cancer cells
  inhibition of colon cancer cells: 85%
Breast cancer
  inhibition on breast cancer: 72%
